Structures can show the parent of a compound that is named as a salt.
These compounds were tested against KRas G12C (Homo sapiens, UniProt P01116, G12C) (assay: Cellular inhibition of KRas G12C measured by Phospho-ERK in NCI-H358 cells). Conditions: pERK(Thr202/Tyr204) normalized with GAPDH, NCI-H358 cells, 3 hours; read-out: IC50.
Assay type: cell-based
Description: Cells were plated in poly-D-Lysine coated 96-well plates at a concentration of 50,000 cells/well and allowed to attach for 8-12 hours. Diluted compounds were then added at a final concentration of 0.5% DMSO. After 3 hours, the medium was removed, 150 μL of 4% formaldehyde was added and the plates were incubated for 20 minutes. The plates were washed with PBS, and permeabilized using 150 μL of ice cold 100% methanol for 10 minutes. Non-specific antibody binding to the plates was blocked using 100 μL Licor Blocking Buffer (Li-Cor Biotechnology, Lincoln Nebr.) for 1 hour at room temperature. Positive control samples and samples lacking cells were parallel processed with test samples as standards.
The amount Phospho-ERK was determined using an antibody specific for the phosphorylated form of ERK and compared to the amount of GAPDH. […] The plates were incubated for 2 hours at room temperature. The plates were washed with PBS+0.05% Tween 20.
Secondary antibodies used to visualize primary antibodies were added as follows: Anti-rabbit-680 diluted 1:1000 and Anti-mouse-800 diluted 1:1000 in Licor Block+0.05% Tween 20 and incubated for 1 hour at room temperature. The plates were washed with PBS+0.05% Tween 20. A 100 μL aliquot of PBS was added to each well and the plates were read on a LICOR AERIUS plate reader.
The pERK(Thr202/Tyr204) signal was normalized with the GAPDH signal and percent of DMSO control values were calculated. IC50 values were generated using a 4 parameter fit of the dose response curve. Key: “A”≥0.0001-≤1 μM; “B”>1 μM and ND=not determined.

Sequence of KRas G12C (P01116 1-188 isoform P01116-2 G12C): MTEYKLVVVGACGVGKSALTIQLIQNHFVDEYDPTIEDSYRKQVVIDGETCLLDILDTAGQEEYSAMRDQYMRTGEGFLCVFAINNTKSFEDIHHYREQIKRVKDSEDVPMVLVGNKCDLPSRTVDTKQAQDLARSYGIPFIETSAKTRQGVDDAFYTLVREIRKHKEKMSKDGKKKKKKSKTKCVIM

First: C=CC(=O)N1CCN(c2nc(OCCCN3CCOCC3)nc3c2CCN(c2cc(O)cc4cc(C)ccc24)C3)CC1 [Example 43, 1-(4-(7-(3-hydroxy-6-methylnaphthalen-1-yl)-2-(3-morpholinopropoxy)-5,6,7,8-tetrahydropyrido[3,4-d]pyrimidin-4-yl)piperazin-1-yl)prop-2-en-1-one]
Second: C=CC(=O)N1CCN(c2nc(O[C@H](C)CN3CCOCC3)nc3c2CCN(c2cc(O)cc4ccccc24)C3)CC1 [Example 56, (R)-1-(4-(7-(3-hydroxynaphthalen-1-yl)-2-((1-morpholinopropan-2-yl)oxy)-5,6,7,8-tetrahydropyrido[3,4-d]pyrimidin-4-yl)piperazin-1-yl)prop-2-en-1-one]
The IC50 of the first is higher: over 1 µM for the first, 0.0001 to 1 µM for the second. The second is the more potent here.

Compared with `C=CC(=O)N1CCN(c2nc(OCCCN3CCOCC3)nc3c2CCN(c2c(C)ccc4[nH]ncc24)C3)CC1` [Example 44, 1-(4-(7-(5-methyl-1H-indazol-4-yl)-2-(3-morpholinopropoxy)-5,6,7,8-tetrahydropyrido[3,4-d]pyrimidin-4-yl)piperazin-1-yl)prop-2-en-1-one], `C=CC(=O)N1CCN(c2nc(OCCN3CCCCC3)nc3c2CCN(c2cc(O)cc4ccccc24)C3)CC1` [Example 52, 1-[4-[7-(3-hydroxy-1-naphthyl)-2-[2-(1-piperidyl)ethoxy]-6,8-dihydro-5H-pyrido[3,4-d]pyrimidin-4-yl]piperazin-1-yl]prop-2-en-1-one] is lower in IC50: over 1 µM for the first, 0.0001 to 1 µM for the second. The second is the more potent here.

`C=CC(=O)N1[C@@H]2CC[C@H]1CN(c1nc(OC(C)CN(C)C)nc3c1CCN(c1cc(O)cc4ccccc14)C3)C2` (stereo partly drawn) [Example 45, 1-((1R,5S)-3-(2-((1-(dimethylamino)propan-2-yl)oxy)-7-(3-hydroxynaphthalen-1-yl)-5,6,7,8-tetrahydropyrido[3,4-d]pyrimidin-4-yl)-3,8-diazabicyclo[3.2.1]octan-8-yl)prop-2-en-1-one] and `C=CC(=O)N1C[C@H]2CC[C@@H](C1)N2c1nc(OC(C)CN(C)C)nc2c1CCN(c1cc(O)cc3ccccc13)C2` (stereo partly drawn) [Example 46, 1-((1R,5S)-8-(2-((1-(dimethylamino)propan-2-yl)oxy)-7-(3-hydroxynaphthalen-1-yl)-5,6,7,8-tetrahydropyrido[3,4-d]pyrimidin-4-yl)-3,8-diazabicyclo[3.2.1]octan-3-yl)prop-2-en-1-one] cannot be ordered by IC50: over 1 µM for the first, over 1 µM for the second.

`C=CC(=O)N1CCN(c2nc(OCCN(C)C)nc3c2CCN(c2cc(O)cc4ccccc24)C3C)CC1` (stereo not drawn) [Example 47, 1-(4-(2-(2-(dimethylamino)ethoxy)-7-(3-hydroxynaphthalen-1-yl)-8-methyl-5,6,7,8-tetrahydropyrido[3,4-d]pyrimidin-4-yl)piperazin-1-yl)prop-2-en-1-one] and `C=CC(=O)N1CCN(c2nc(OCCN(C)C)nc3c2CC(C)N(c2cc(O)cc4ccccc24)C3)CC1` (stereo not drawn) [Example 48, 1-(4-(2-(2-(dimethylamino)ethoxy)-7-(3-hydroxynaphthalen-1-yl)-6-methyl-5,6,7,8-tetrahydropyrido[3,4-d]pyrimidin-4-yl)piperazin-1-yl)prop-2-en-1-one trifluoroacetate] cannot be ordered by IC50: over 1 µM for the first, over 1 µM for the second.

`C=CC(=O)N1CCN(c2nc(OCCN3CCC(F)C3)nc3c2CCN(c2cc(O)cc4ccccc24)C3)CC1` (stereo not drawn) [Example 49, 1-(4-(2-(2-(3-fluoropyrrolidin-1-yl)ethoxy)-7-(3-hydroxynaphthalen-1-yl)-5,6,7,8-tetrahydropyrido[3,4-d]pyrimidin-4-yl)piperazin-1-yl)prop-2-en-1-one] and `C=CC(=O)N1CCN(c2nc(O[C@H](C)CN3CC[C@H](O)C3)nc3c2CCN(c2cc(O)cc4ccccc24)C3)CC1` [Example 65, 1-(4-(7-(3-hydroxynaphthalen-1-yl)-2-(((R)-1-((S)-3-hydroxypyrrolidin-1-yl)propan-2-yl)oxy)-5,6,7,8-tetrahydropyrido[3,4-d]pyrimidin-4-yl)piperazin-1-yl)prop-2-en-1-one] cannot be ordered by IC50: over 1 µM for the first, over 1 µM for the second.

`C=CC(=O)N1CCN(c2nc(OCCN(C)C)nc3c2CCN(c2cc(O)cc4ccccc24)C3)CC1CO` (stereo not drawn) [Example 50, 1-(4-(2-(2-(dimethylamino)ethoxy)-7-(3-hydroxynaphthalen-1-yl)-5,6,7,8-tetrahydropyrido [3,4-d]pyrimidin-4-yl)-2-(hydroxymethyl)piperazin-1-yl)prop-2-en-1-one] and `C=CC(=O)N1CCN(c2nc(OCCN(C)C)nc3c2CCN(c2cc(O)cc4ccccc24)C3)C(CO)C1` (stereo not drawn) [Example 53, 1-(4-(2-(2-(dimethylamino)ethoxy)-7-(3-hydroxynaphthalen-1-yl)-5,6,7,8-tetrahydropyrido[3,4-d]pyrimidin-4-yl)-3-(hydroxymethyl)piperazin-1-yl)prop-2-en-1-one] cannot be ordered by IC50: over 1 µM for the first, over 1 µM for the second.

`C=CC(=O)N1CCN(c2nc(OCCN(C)C)nc3c2CCN(c2cc(O)cc4ccccc24)C3)CC1C(=O)N(C)C` (stereo not drawn) [Example 51, 1-acryloyl-4-(2-(2-(dimethylamino)ethoxy)-7-(3-hydroxynaphthalen-1-yl)-5,6,7,8-tetrahydropyrido[3,4-d]pyrimidin-4-yl)-N,N-dimethylpiperazine-2-carboxamide] and `C=CC(=O)N1CCN(c2nc(OCCNC(C)=O)nc3c2CCN(c2cc(O)cc4ccccc24)C3)CC1` [Example 59, N-(2-((4-(4-acryloylpiperazin-1-yl)-7-(3-hydroxynaphthalen-1-yl)-5,6,7,8-tetrahydropyrido[3,4-d]pyrimidin-2-yl)oxy)ethyl)acetamide] cannot be ordered by IC50: over 1 µM for the first, over 1 µM for the second.

`C=CC(=O)N1CCN(c2ncnc3c2CCN(c2nc(N)cc4ccccc24)C3)CC1` [Example 54, 1-[4-[7-(3-amino-1-isoquinolyl)-6,8-dihydro-5H-pyrido[3,4-d]pyrimidin-4-yl]piperazin-1-yl]prop-2-en-1-one] and `C=CC(=O)N1CCN(c2nc(O[C@H](CC)CN(C)C)nc3c2CCN(c2cc(O)cc4ccccc24)C3)CC1` [Example 60, (R)-1-(4-(2-((1-(dimethylamino)butan-2-yl)oxy)-7-(3-hydroxynaphthalen-1-yl)-5,6,7,8-tetrahydropyrido[3,4-d]pyrimidin-4-yl)piperazin-1-yl)prop-2-en-1-one] cannot be ordered by IC50: over 1 µM for the first, over 1 µM for the second.

Compared with `C=CC(=O)N1CCN(c2nc(OCC(CO)N(C)C)nc3c2CCN(c2cc(O)cc4ccccc24)C3)CC1` (stereo not drawn) [Example 55, 1-(4-(2-(2-(dimethylamino)-3-hydroxypropoxy)-7-(3-hydroxynaphthalen-1-yl)-5,6,7,8-tetrahydropyrido[3,4-d]pyrimidin-4-yl)piperazin-1-yl)prop-2-en-1-one], `C=CC(=O)N1CCN(c2nc(OC[C@@H]3CCC(=O)N3)nc3c2CCN(c2cc(O)cc4ccccc24)C3)CC1` [Example 57, (S)-5-(((4-(4-acryloylpiperazin-1-yl)-7-(3-hydroxynaphthalen-1-yl)-5,6,7,8-tetrahydropyrido[3,4-d]pyrimidin-2-yl)oxy)methyl)pyrrolidin-2-one] is higher in IC50: 0.0001 to 1 µM for the first, over 1 µM for the second.

`C=CC(=O)N1CCN(c2nc(OC[C@H]3CCC(=O)N3)nc3c2CCN(c2cc(O)cc4ccccc24)C3)CC1` [Example 58, (R)-5-(((4-(4-acryloylpiperazin-1-yl)-7-(3-hydroxynaphthalen-1-yl)-5,6,7,8-tetrahydropyrido[3,4-d]pyrimidin-2-yl)oxy)methyl)pyrrolidin-2-one] and `C=CC(=O)N1CCN(c2nc(O[C@H]3CCCN(C)C3)nc3c2CCN(c2cc(O)cc4ccccc24)C3)CC1` [Example 66, (S)-1-(4-(7-(3-hydroxynaphthalen-1-yl)-2-((1-methylpiperidin-3-yl)oxy)-5,6,7,8-tetrahydropyrido[3,4-d]pyrimidin-4-yl)piperazin-1-yl)prop-2-en-1-one] cannot be ordered by IC50: over 1 µM for the first, over 1 µM for the second.

First: C=CC(=O)N1CCN(c2nc(O[C@H](C)CN3CC[C@@H](OC)C3)nc3c2CCN(c2cc(O)cc4ccccc24)C3)CC1 [Example 63, 1-(4-(7-(3-hydroxynaphthalen-1-yl)-2-(((R)-1-((R)-3-methoxypyrrolidin-1-yl)propan-2-yl)oxy)-5,6,7,8-tetrahydropyrido[3,4-d]pyrimidin-4-yl)piperazin-1-yl)prop-2-en-1-one]
Second: C=CC(=O)N1CCN(c2nc(O[C@H](C)CN3CC[C@H](OC)C3)nc3c2CCN(c2cc(O)cc4ccccc24)C3)CC1 [Example 64, 1-(4-(7-(3-hydroxynaphthalen-1-yl)-2-(((R)-1-((S)-3-methoxypyrrolidin-1-yl)propan-2-yl)oxy)-5,6,7,8-tetrahydropyrido[3,4-d]pyrimidin-4-yl)piperazin-1-yl)prop-2-en-1-one]
The IC50 of the first is higher: over 1 µM for the first, 0.0001 to 1 µM for the second. The second is the more potent here.

Compared with `C=CC(=O)N1CCN(c2nc(O[C@@H]3CCCN(C)C3)nc3c2CCN(c2cc(O)cc4ccccc24)C3)CC1` [Example 67, (R)-1-(4-(7-(3-hydroxynaphthalen-1-yl)-2-((1-methylpiperidin-3-yl)oxy)-5,6,7,8-tetrahydropyrido[3,4-d]pyrimidin-4-yl)piperazin-1-yl)prop-2-en-1-one], `C=CC(=O)N1CCN(c2nc(O[C@H](C)CN(C)C)nc3c2CCN(c2cccc4ccccc24)C3)CC1` [Example 68, (R)-1-(4-(2-((1-(dimethylamino)propan-2-yl)oxy)-7-(naphthalen-1-yl)-5,6,7,8-tetrahydropyrido[3,4-d]pyrimidin-4-yl)piperazin-1-yl)prop-2-en-1-one] is higher in IC50: 0.0001 to 1 µM for the first, over 1 µM for the second. The first is the more potent here.
